In brackets after ≈: the same amount, converted by molar mass.
Columns and labels:
MDA-MB-468 = assay: Cytotoxicity against human MDA-MB-468 assessed as cell growth at high concentration; assay type: functional
T47D = assay: Cytotoxicity against human T47D assessed as cell growth at high concentration; assay type: functional
Hs-578T = assay: Cytotoxicity against human Hs 578T assessed as cell growth at high concentration; assay type: functional
MDA-MB-231 = assay: Cytotoxicity against human MDA-MB-231 assessed as cell growth at high concentration; assay type: functional
DU-145 = assay: Cytotoxicity against human DU145 assessed as cell growth at high concentration; assay type: functional
PC-3 = assay: Cytotoxicity against human PC3 assessed as cell growth at high concentration; assay type: functional
UO-31 = assay: Cytotoxicity against human UO31 assessed as cell growth at high concentration; assay type: functional
SN12C = assay: Cytotoxicity against human SN12C assessed as cell growth at high concentration; assay type: functional
CAKI-1 = assay: Cytotoxicity against human Caki1 assessed as cell growth at high concentration; assay type: functional
ACHN = assay: Cytotoxicity against human ACHN assessed as cell growth at high concentration; assay type: functional
A498 = assay: Cytotoxicity against human A498 assessed as cell growth at high concentration; assay type: functional
SK-OV-3 = assay: Cytotoxicity against human SKOV3 assessed as cell growth at high concentration; assay type: functional
[1] = Cytotoxicity against human NCI-ADR-RES assessed as cell growth at high concentration; assay type: functional
OVCAR-5 = assay: Cytotoxicity against human OVCAR5 assessed as cell growth at high concentration; assay type: functional
OVCAR-8 = assay: Cytotoxicity against human OVCAR8 assessed as cell growth at high concentration; assay type: functional
OVCAR-4 = assay: Cytotoxicity against human OVCAR4 assessed as cell growth at high concentration; assay type: functional
UACC-257 = assay: Cytotoxicity against human UACC257 assessed as cell growth at high concentration; assay type: functional
UACC-62 = assay: Cytotoxicity against human UACC62 assessed as cell growth at high concentration; assay type: functional
SK-MEL-28 = assay: Cytotoxicity against human SK-MEL-28 assessed as cell growth at high concentration; assay type: functional
SK-MEL-5 = assay: Cytotoxicity against human SK-MEL-5 assessed as cell growth at high concentration; assay type: functional
SK-MEL-2 = assay: Cytotoxicity against human SK-MEL-2 assessed as cell growth at high concentration; assay type: functional
MDA-MB-435 = assay: Cytotoxicity against human MDA-MB-435 assessed as cell growth at high concentration; assay type: functional
M14 = assay: Cytotoxicity against human M14 assessed as cell growth at high concentration; assay type: functional
Malme-3M = assay: Cytotoxicity against human MALME-3M assessed as cell growth at high concentration; assay type: functional
LOX IMVI = assay: Cytotoxicity against human LOXIMVI assessed as cell growth at high concentration; assay type: functional
SNB-75 = assay: Cytotoxicity against human SNB75 assessed as cell growth at high concentration; assay type: functional
U-251 = assay: Cytotoxicity against human U251 assessed as cell growth at high concentration; assay type: functional
SF-539 = assay: Cytotoxicity against human SF539 assessed as cell growth at high concentration; assay type: functional
HOP-62 = assay: Cytotoxicity against human HOP62 assessed as cell growth at high concentration; assay type: functional
HOP-92 = assay: Cytotoxicity against human HOP92 assessed as cell growth at high concentration; assay type: functional
A549 = assay: Cytotoxicity against human A549 assessed as cell growth at high concentration; assay type: functional
MOLT-4 = assay: Cytotoxicity against human MOLT4 assessed as cell growth at high concentration; assay type: functional
K562 = assay: Cytotoxicity against human K562 assessed as cell growth at high concentration; assay type: functional
[2] = Selectivity index, ratio of CC50 for human MT4 cells to IC50 for HIV2 ROD; assay type: functional
[3] = Selectivity index, ratio of CC50 for human MT4 cells to IC50 for HIV1 3B; assay type: functional
Human alphaherpesvirus 3 = assay: Antiviral activity against thymidine kinase-deficient Varicella-zoster virus infected in HEL cells assessed as reduction in plaque formation; assay type: functional, organism-based; settings: Human alphaherpesvirus 3, HEL
SF-295 = assay: Cytotoxicity against human SF295 assessed as cell growth at high concentration; assay type: functional
SF-268 = assay: Cytotoxicity against human SF268 assessed as cell growth at high concentration; assay type: functional
SW-620 = assay: Cytotoxicity against human SW620 assessed as cell growth at high concentration; assay type: functional
KM12 = assay: Cytotoxicity against human KM12 assessed as cell growth at high concentration; assay type: functional
HCT-15 = assay: Cytotoxicity against human HCT15 assessed as cell growth at high concentration; assay type: functional
HT-29 = assay: Cytotoxicity against human HT-29 assessed as cell growth at high concentration; assay type: functional
COLO 205 = assay: Cytotoxicity against human COLO205 assessed as cell growth at high concentration; assay type: functional
[4] = system: Human immunodeficiency virus 1; assay: Antiviral activity against HIV1 3B infected in MT4 cells assessed as inhibition of virus-induced cytopathogenicity by MTT assay; assay type: functional, organism-based; settings: Human immunodeficiency virus 1, 3B
[5] = Cytotoxicity against human HEL cells; assay type: cell-based
Cytomegalovirus [6] = assay: Antiviral activity against Cytomegalovirus Davis in HEL cells assessed as reduction in plaque formation; assay type: functional, organism-based; settings: Human betaherpesvirus 5, Davis
[7] = Cytotoxicity against human HEL cells assessed as alteration in cell morphology; assay type: cell-based
Cytomegalovirus [8] = assay: Antiviral activity against Cytomegalovirus AD-169 infected in HEL cells assessed as reduction in plaque formation; assay type: functional, organism-based; settings: Human betaherpesvirus 5, AD-169, HEL
Aspergillus clavatus = assay: Antifungal activity against Aspergillus clavatus MTCC 1323; assay type: functional
Aspergillus niger = assay: Antifungal activity against Aspergillus niger MTCC 282 at 250 ug/ml after 74 hrs by Kirby-Bauer method; assay type: functional; settings: MTCC 282, 74 h, read-out: IZ
Pseudomonas aeruginosa [9] = assay: Antibacterial activity against Pseudomonas aeruginosa MTCC 424 after 24 hrs by broth dilution method; assay type: functional; settings: MTCC 424, 24 h
Streptococcus pyogenes [10] = assay: Antibacterial activity against Streptococcus pyogenes MTCC 442 after 24 hrs by broth dilution method; assay type: functional; settings: MTCC 442, 24 h
Escherichia coli [11] = assay: Antibacterial activity against Escherichia coli MTCC 443 after 24 hrs by broth dilution method; assay type: functional; settings: MTCC 443, 24 h
Staphylococcus aureus = assay: Antibacterial activity against Staphylococcus aureus MTCC 96 after 24 hrs by broth dilution method; assay type: functional; settings: MTCC 96, 24 h
Pseudomonas aeruginosa [12] = assay: Antibacterial activity against Pseudomonas aeruginosa MTCC 424 at 250 ug/ml after 24 hrs by Kirby-Bauer method; assay type: functional; settings: MTCC 424, 24 h, read-out: IZ
Escherichia coli [13] = assay: Antibacterial activity against Escherichia coli MTCC 443 at 250 ug/ml after 24 hrs by Kirby-Bauer method; assay type: functional; settings: MTCC 443, 24 h, read-out: IZ
Streptococcus pyogenes [14] = assay: Antibacterial activity against Streptococcus pyogenes MTCC 442 at 250 ug/ml after 24 hrs by Kirby-Bauer method; assay type: functional; settings: MTCC 442, 24 h, read-out: IZ

Cc1ccc(-[n+]2noc([O-])c2CN2CCN(c3cccc(Cl)c3)CC2)cc1
Activity (MDA-MB-468): 80.15%
Activity (T47D): 72.96%
Activity (Hs-578T): 92.29%
Activity (MDA-MB-231): 75.33%
Activity (DU-145): 95.5%
Activity (PC-3): 70.26%
Activity (UO-31): 61.64%
Activity (SN12C): 87.71%
Activity (CAKI-1): 86.38%
Activity (ACHN): 87.78%
Activity (A498): 51.7%
Activity (SK-OV-3): 99.53%
Activity [1]: 97.44%
Activity (OVCAR-5): 94.62%
Activity (OVCAR-8): 94.91%
Activity (OVCAR-4): 89.31%
Activity (UACC-257): 93.49%
Activity (UACC-62): 82.63%
Activity (SK-MEL-28): 98.44%
Activity (SK-MEL-5): 95.3%
Activity (SK-MEL-2): 108.26%
Activity (MDA-MB-435): 100.2%
Activity (M14): 107.94%
Activity (Malme-3M): 95.22%
Activity (LOX IMVI): 99.09%
Activity (SNB-75): 99.33%
Activity (U-251): 82.08%
Activity (SF-539): 92.15%
Activity (HOP-62): 86.8%
Activity (HOP-92): 72.29%
Activity (A549): 96.53%
Activity (MOLT-4): 88.5%
Activity (K562): 53.83%
Ratio CC50/IC50 [2]: <1
Ratio CC50/IC50 [3]: <1
EC50 (Human alphaherpesvirus 3): > 20 µg/mL
Activity (SF-295): 78.19%
Activity (SF-268): 88.36%
Activity (SW-620): 92.74%
Activity (KM12): 99.21%
Activity (HCT-15): 77.65%
Activity (HT-29): 90.87%
Activity (COLO 205): 89.45%
IC50 [4]: > 27.4 µg/mL
CC50 [5]: 38.2 µg/mL (≈ 99.3 µM)
EC50 (Cytomegalovirus [6]): > 20 µg/mL
MCC [7]: 100 µg/mL
EC50 (Cytomegalovirus [8]): 15.3 µg/mL (≈ 39.8 µM)
MIC (Aspergillus clavatus): 200 µg/mL (≈ 520 µM)
zone of inhibition at 250 µg/mL (Aspergillus niger): 23 mm
MIC (Pseudomonas aeruginosa [9]): 150 µg/mL (≈ 390 µM)
MIC (Streptococcus pyogenes [10]): 125 µg/mL (≈ 325 µM)
MIC (Escherichia coli [11]): 100 µg/mL (≈ 260 µM)
MIC (Staphylococcus aureus): 62.5 µg/mL (≈ 162 µM)
zone of inhibition at 250 µg/mL (Pseudomonas aeruginosa [12]): 21 mm
zone of inhibition at 250 µg/mL (Escherichia coli [13]): 22 mm
zone of inhibition at 250 µg/mL (Streptococcus pyogenes [14]): 20 mm

Cc1ccc(-[n+]2noc([O-])c2CN2CCNCC2)cc1
Activity (MDA-MB-468): 101.9%
Activity (T47D): 106.04%
Activity (Hs-578T): 101.05%
Activity (MDA-MB-231): 86.16%
Activity (DU-145): 102.16%
Activity (PC-3): 88.56%
Activity (UO-31): 70.1%
Activity (SN12C): 91.43%
Activity (CAKI-1): 91.35%
Activity (ACHN): 92.05%
Activity (A498): 91.02%
Activity (SK-OV-3): 97.27%
Activity [1]: 99.62%
Activity (OVCAR-5): 96.81%
Activity (OVCAR-8): 104.3%
Activity (OVCAR-4): 114.7%
Activity (UACC-257): 96.41%
Activity (UACC-62): 93.66%
Activity (SK-MEL-28): 105.58%
Activity (SK-MEL-5): 100.25%
Activity (SK-MEL-2): 114.56%
Activity (MDA-MB-435): 103.5%
Activity (M14): 105.86%
Activity (Malme-3M): 109.79%
Activity (LOX IMVI): 92.56%
Activity (SNB-75): 145.71%
Activity (U-251): 91.33%
Activity (SF-539): 101.2%
Activity (HOP-62): 90.65%
Activity (HOP-92): 76.22%
Activity (A549): 99.61%
Activity (MOLT-4): 117.17%
Activity (K562): 120.22%
Ratio CC50/IC50 [2]: <1
Ratio CC50/IC50 [3]: <1
EC50 (Human alphaherpesvirus 3): > 20 µg/mL
Activity (SF-295): 98.69%
Activity (SF-268): 95.92%
Activity (SW-620): 96.29%
Activity (KM12): 91.06%
Activity (HCT-15): 102.72%
Activity (HT-29): 105.21%
Activity (COLO 205): 99.98%
IC50 [4]: > 32.6 µg/mL
CC50 [5]: 46 µg/mL (≈ 168 µM)
EC50 (Cytomegalovirus [6]): > 20 µg/mL
MCC [7]: 100 µg/mL
EC50 (Cytomegalovirus [8]): > 20 µg/mL
MIC (Aspergillus clavatus): 200 µg/mL (≈ 729 µM)
zone of inhibition at 250 µg/mL (Aspergillus niger): 25 mm
MIC (Pseudomonas aeruginosa [9]): 50 µg/mL (≈ 182 µM)
MIC (Streptococcus pyogenes [10]): 500 µg/mL (≈ 1820 µM)
MIC (Escherichia coli [11]): 100 µg/mL (≈ 365 µM)
MIC (Staphylococcus aureus): 200 µg/mL (≈ 729 µM)
zone of inhibition at 250 µg/mL (Pseudomonas aeruginosa [12]): 23 mm
zone of inhibition at 250 µg/mL (Escherichia coli [13]): 21 mm
zone of inhibition at 250 µg/mL (Streptococcus pyogenes [14]): 17 mm

— ChEMBL document CHEMBL3044741, “Synthesis of novel biologically active methylene derivatives of sydnones” (Med Chem Res, 2013)
